From ChEMBL document CHEMBL6127085, “Design, synthesis and evaluation of novel LpxC inhibitors containing a hydrazone moiety as Gram-negative antibacterial agents” (Eur J Med Chem, 2024)
≈ marks a conversion by molar mass, not a printed value.

Key:
Format in all cases: functional
Details in all cases: time 18-24 hrs
Klebsiella pneumoniae [1] = assay: Antibacterial activity against Klebsiella pneumoniae clinical isolate KPN+22-1 assessed as reduction in bacterial growth measured after 18 to 24 hrs by CLSI protocol based method
Pseudomonas aeruginosa [2] = assay: Antibacterial activity against Pseudomonas aeruginosa ATCC27853 assessed as reduction in bacterial growth measured after 18 to 24 hrs by CLSI protocol based method
Pseudomonas aeruginosa [3] = assay: Antibacterial activity against Pseudomonas aeruginosa clinical isolate PAE22-1 assessed as reduction in bacterial growth measured after 18 to 24 hrs by CLSI protocol based method
Klebsiella pneumoniae [4] = assay: Antibacterial activity against Klebsiella pneumoniae ATCC700603 assessed as reduction in bacterial growth measured after 18 to 24 hrs by CLSI protocol based method
Escherichia coli = assay: Antibacterial activity against Escherichia coli ATCC25922 assessed as reduction in bacterial growth measured after 18 to 24 hrs by CLSI protocol based method

Row | MIC (Klebsiella pneumoniae [1]) [µg/mL] | MIC (Pseudomonas aeruginosa [2]) [µg/mL] | MIC (Pseudomonas aeruginosa [3]) [µg/mL] | MIC (Klebsiella pneumoniae [4]) [µg/mL] | MIC (Escherichia coli) [µg/mL] | Structure (SMILES)
1 | 1 (≈ 2.23 µM) | 32 (≈ 71.3 µM) | 4 (≈ 8.92 µM) | 32 (≈ 71.3 µM) | 0.25 (≈ 0.557 µM) | C[C@@H](O)[C@H](NC(=O)c1ccc(C#Cc2ccc(/C=N/N3CCCCC3)cc2)cc1)C(=O)NO
2 | > 64 | > 64 | > 64 | > 64 | 4 (≈ 8.9 µM) | C[C@@H](O)[C@H](NC(=O)c1ccc(C#Cc2ccc(/C=N/N3CCNCC3)cc2)cc1)C(=O)NO
3 | 4 (≈ 8.02 µM) | 4 (≈ 8.02 µM) | 4 (≈ 8.02 µM) | 16 (≈ 32.1 µM) | 1 (≈ 2.01 µM) | C[C@@H](O)[C@H](NC(=O)c1ccc(C#Cc2ccc(/C=N/N3CCS(=O)(=O)CC3)cc2)cc1)C(=O)NO
4 | 2 (≈ 4.31 µM) | 2 (≈ 4.31 µM) | 2 (≈ 4.31 µM) | 8 (≈ 17.3 µM) | 1 (≈ 2.16 µM) | C[C@@H](O)[C@H](NC(=O)c1ccc(C#Cc2ccc(/C=N/N3CCN(C)CC3)cc2)cc1)C(=O)NO
5 | 32 (≈ 61.8 µM) | > 64 | 32 (≈ 61.8 µM) | > 64 | 2 (≈ 3.86 µM) | C[C@@H](O)[C@H](NC(=O)c1ccc(C#Cc2ccc(/C=N/N3CCN(C4CCCC4)CC3)cc2)cc1)C(=O)NO
6 | 16 (≈ 29.9 µM) | 16 (≈ 29.9 µM) | 16 (≈ 29.9 µM) | > 64 | 4 (≈ 7.48 µM) | C[C@@H](O)[C@H](NC(=O)c1ccc(C#Cc2ccc(/C=N/N3CCN(C(=O)C(C)(C)C)CC3)nc2)cc1)C(=O)NO
7 | 2 (≈ 3.84 µM) | 8 (≈ 15.4 µM) | 4 (≈ 7.68 µM) | 16 (≈ 30.7 µM) | 0.5 (≈ 0.96 µM) | C[C@@H](O)[C@H](NC(=O)c1ccc(C#Cc2ccc(/C=N/N3CCN(C(=O)N(C)C)CC3)cc2)cc1)C(=O)NO
8 | 8 (≈ 18.4 µM) | – | > 64 | – | 1 (≈ 2.3 µM) | O=C(NO)C1CN(c2ccc(C#Cc3ccc(/C=N/N4CCOCC4)cc3)cc2)C(=O)O1 (configuration not stated)
9 | > 64 | > 64 | 4 (≈ 9.19 µM) | – | 2 (≈ 4.59 µM) | C[C@@H](O)[C@H](NC(=O)c1ccc(C#Cc2ccc(/C=N/N3CCCC3)nc2)cc1)C(=O)NO
10 | 4 (≈ 7.67 µM) | 8 (≈ 15.3 µM) | 8 (≈ 15.3 µM) | 16 (≈ 30.7 µM) | 0.06 (≈ 0.115 µM) | CCOC(=O)N1CCN(/N=C/c2ccc(C#Cc3ccc(C(=O)N[C@H](C(=O)NO)[C@@H](C)O)cc3)cc2)CC1
11 | 32 (≈ 68.9 µM) | 8 (≈ 17.2 µM) | 8 (≈ 17.2 µM) | – | 8 (≈ 17.2 µM) | C[C@@H](O)[C@H](NC(=O)c1ccc(C#Cc2ccc(/C=N/N3CCN(C)CC3)nc2)cc1)C(=O)NO
12 | 2 (≈ 4.07 µM) | > 64 | 2 (≈ 4.07 µM) | > 64 | 0.5 (≈ 1.02 µM) | CC(=O)N1CCN(/N=C/c2ccc(C#Cc3ccc(C(=O)N[C@H](C(=O)NO)[C@@H](C)O)cc3)cc2)CC1
13 | > 64 | – | > 64 | – | > 64 | O=C(NO)C1CN(c2ccc(C#Cc3ccc(/C=N/N4CCCC4)cc3)cc2)C(=O)O1 (configuration not stated)
14 | > 64 | > 64 | > 64 | > 64 | 0.5 (≈ 0.948 µM) | C[C@@H](O)[C@H](NC(=O)c1ccc(C#Cc2ccc(/C=N/N3CCN(S(C)(=O)=O)CC3)cc2)cc1)C(=O)NO
15 | 64 (≈ 134 µM) | 4 (≈ 8.36 µM) | 8 (≈ 16.7 µM) | > 64 | 16 (≈ 33.4 µM) | CCN1CCN(/N=C/c2ccc(C#Cc3ccc(C(=O)N[C@H](C(=O)NO)[C@@H](C)O)cc3)cn2)CC1
16 | 8 (≈ 17.8 µM) | 16 (≈ 35.6 µM) | 2 (≈ 4.45 µM) | – | 1 (≈ 2.22 µM) | C[C@@H](O)[C@H](NC(=O)c1ccc(C#Cc2ccc(/C=N/N3CCCCC3)nc2)cc1)C(=O)NO
17 | 16 (≈ 35.4 µM) | 16 (≈ 35.4 µM) | 2 (≈ 4.43 µM) | – | 4 (≈ 8.86 µM) | C[C@@H](O)[C@H](NC(=O)c1ccc(C#Cc2ccc(/C=N/N3CCOCC3)nc2)cc1)C(=O)NO
18 | 32 (≈ 63.2 µM) | 16 (≈ 31.6 µM) | 16 (≈ 31.6 µM) | > 64 | 8 (≈ 15.8 µM) | CCC(=O)N1CCN(/N=C/c2ccc(C#Cc3ccc(C(=O)N[C@H](C(=O)NO)[C@@H](C)O)cc3)cn2)CC1
